Assay results taken from ChEMBL document CHEMBL1909046, “DrugMatrix in vitro pharmacology data”.
*1 amine or outer side, *2 acyl side, *3 side chain or, on linkers, in order; H or OH if unused. Where a SMILES comes first, the peptide text is derived from it. Bridges are numbered along the chain shown (N, C = ends). Roman numbers before positions name the chains, in order. [ ]: non-standard residue; d: D form. Actinocin(1to9) = Cc1c2oc3c(C)ccc(C(=O)[*:2])c3nc-2c(C(=O)[*:1])c(N)c1=O; NMeV = CN[C@H](C(=O)O)C(C)C; Sar = CNCC(=O)O

Tests used:
[1] = molecular target: T1, C-X-C chemokine receptor type 2 (Homo sapiens, UniProt P25025); format: cell membranes, Membrane; settings: cho-k1; also: in other assays of this panel Not Active means under 50% inhibition at 10 µM
T1 sequence (P25025 whole entry): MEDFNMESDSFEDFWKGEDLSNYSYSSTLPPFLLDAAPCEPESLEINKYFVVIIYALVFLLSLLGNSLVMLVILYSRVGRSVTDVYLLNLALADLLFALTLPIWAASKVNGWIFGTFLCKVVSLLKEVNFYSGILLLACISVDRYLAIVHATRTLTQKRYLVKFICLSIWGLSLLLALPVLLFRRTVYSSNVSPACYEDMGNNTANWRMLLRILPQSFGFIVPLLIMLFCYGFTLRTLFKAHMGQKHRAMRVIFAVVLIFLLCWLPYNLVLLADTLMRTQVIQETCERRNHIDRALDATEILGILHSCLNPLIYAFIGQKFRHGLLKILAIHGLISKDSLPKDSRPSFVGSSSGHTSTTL

[2] = molecular target: Platelet-activating factor receptor (Homo sapiens, UniProt P25105); format: tissue-based; also: in other assays of this panel Not Active means under 50% inhibition at 10 µM
[3] = molecular target: Protein phosphatase 3 catalytic subunit alpha (Homo sapiens, UniProt Q08209); design: species or system Escherichia coli;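 also: inhibition of calcineurin (PP2B) enzyme activity, measured with DiFMUP as the substrate; in other assays of this panel Not Active means under 50% inhibition at 10 µM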
Caspase-1 = molecular target: T2, Caspase-1 (Homo sapiens, UniProt P29466); design: species or system Escherichia coli;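 also: Caspase-1 enzyme inhibition assay with a peptide substrate; in other assays of this panel Not Active means under 50% inhibition at 10 µM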
T2 sequence (P29466 whole entry): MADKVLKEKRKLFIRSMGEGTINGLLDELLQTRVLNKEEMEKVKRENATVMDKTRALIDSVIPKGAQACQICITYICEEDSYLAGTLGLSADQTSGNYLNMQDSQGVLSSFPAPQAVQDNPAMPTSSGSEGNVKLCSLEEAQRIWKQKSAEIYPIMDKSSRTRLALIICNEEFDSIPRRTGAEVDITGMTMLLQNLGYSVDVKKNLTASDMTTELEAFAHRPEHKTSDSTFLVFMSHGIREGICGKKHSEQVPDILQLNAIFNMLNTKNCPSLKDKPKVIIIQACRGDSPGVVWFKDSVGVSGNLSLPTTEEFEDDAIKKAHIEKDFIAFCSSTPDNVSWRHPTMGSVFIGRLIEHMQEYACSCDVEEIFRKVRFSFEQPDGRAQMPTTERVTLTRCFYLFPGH

[4] = molecular target: Aldo-keto reductase family 1 member B1 (Rattus norvegicus, UniProt P07943); test: biochemical; format: tissue-based, Lens of camera-type eye
[5] = molecular target: cGMP-specific 3',5'-cyclic phosphodiesterase (Homo sapiens, UniProt O76074); test: DRUGMATRIX: Phosphodiesterase PDE5 enzyme inhibition (substrate: [3H]cGMP + cGMP); format: tissue-based; settings: platelet; Not Active = under 50% inhibition at 10 µM
[6] = molecular target: T3, Amine oxidase [flavin-containing] A (Homo sapiens, UniProt P21397); test: DRUGMATRIX: Monoamine Oxidase MAO-A enzyme inhibition (substrate: Kynuramine); design: species or system BTI-TN-5B1-4; settings: bti-tn-5b1-4; Not Active = under 50% inhibition at 10 µM
T3 sequence (P21397 whole entry): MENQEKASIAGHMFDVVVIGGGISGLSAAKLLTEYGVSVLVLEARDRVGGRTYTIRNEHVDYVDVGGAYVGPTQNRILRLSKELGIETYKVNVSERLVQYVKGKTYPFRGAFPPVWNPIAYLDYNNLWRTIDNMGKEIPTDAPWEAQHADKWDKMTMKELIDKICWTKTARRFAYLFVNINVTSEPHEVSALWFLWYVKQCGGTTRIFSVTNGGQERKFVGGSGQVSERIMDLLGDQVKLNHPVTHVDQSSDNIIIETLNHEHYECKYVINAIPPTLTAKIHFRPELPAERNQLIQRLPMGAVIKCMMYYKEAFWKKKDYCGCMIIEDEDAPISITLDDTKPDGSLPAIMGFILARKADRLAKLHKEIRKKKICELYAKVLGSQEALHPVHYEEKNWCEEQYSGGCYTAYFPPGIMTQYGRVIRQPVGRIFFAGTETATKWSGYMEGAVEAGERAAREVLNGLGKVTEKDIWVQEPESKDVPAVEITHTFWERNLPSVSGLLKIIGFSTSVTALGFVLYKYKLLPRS

[7] = DRUGMATRIX: Calcium Channel Type L, Benzothiazepine radioligand binding (ligand: [3H] Diltiazem); format: cell membranes, Rattus norvegicus, Wistar, Brain, Membrane; settings: Not Active = under 50% inhibition at 10 µM

Chain of Platelet-activating factor receptor (P25105 whole entry): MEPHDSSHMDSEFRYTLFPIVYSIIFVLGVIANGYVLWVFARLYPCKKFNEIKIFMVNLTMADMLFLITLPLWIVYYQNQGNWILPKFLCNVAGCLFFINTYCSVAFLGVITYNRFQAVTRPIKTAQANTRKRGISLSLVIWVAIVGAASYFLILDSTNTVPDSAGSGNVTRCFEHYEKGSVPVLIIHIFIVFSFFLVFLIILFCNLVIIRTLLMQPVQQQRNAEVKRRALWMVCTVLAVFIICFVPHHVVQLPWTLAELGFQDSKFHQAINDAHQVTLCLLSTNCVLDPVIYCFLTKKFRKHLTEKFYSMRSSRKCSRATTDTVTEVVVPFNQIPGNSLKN

SMILES | IC50 [1] | IC50 [2] | IC50 [3] | IC50 (Caspase-1) | IC50 [4] | IC50 [5] | IC50 [6] | IC50 [7] | Ki [7] | IC50 ([4]; read-out: IC50) | IC50 ([7]; read-out: IC50) | Ki ([7]; read-out: Ki)
CC(NC(C)(C)C)C(=O)c1cccc(Cl)c1 (centres undefined) [BUPROPION] | Not Active | Not Active | Not Active | Not Active | Not Active | Not Active | Not Active | Not Active | Not Active | – | – | –
CN(Cc1ccc(C(C)(C)C)cc1)Cc1cccc2ccccc12 [BUTENAFINE] | Not Active | Not Active | Not Active | Not Active | Not Active | Not Active | Not Active | Not Active | Not Active | – | – | –
C[C@H](CS)C(=O)N1CCC[C@H]1C(=O)O [CAPTOPRIL] | Not Active | Not Active | Not Active | Not Active | Not Active | Not Active | Not Active | Not Active | Not Active | – | – | –
Cc1ccc(-c2cc(C(F)(F)F)nn2-c2ccc(S(N)(=O)=O)cc2)cc1 [CELECOXIB] | Not Active | Not Active | Not Active | Not Active | Not Active | Not Active | Not Active | Not Active | Not Active | – | – | –
O=C(O)CCCc1ccc(N(CCCl)CCCl)cc1 [CHLORAMBUCIL] | Not Active | Not Active | Not Active | Not Active | – | Not Active | Not Active | Not Active | Not Active | 9.41 µM | – | –
CN(C)CCCN1c2ccccc2Sc2ccc(Cl)cc21 [CHLORPROMAZINE] | Not Active | Not Active | Not Active | Not Active | Not Active | Not Active | Not Active | – | – | – | 3.21 µM | 2.86 µM
C[C@H](CCC(=O)O)[C@H]1CC[C@H]2[C@@H]3[C@H](O)C[C@@H]4C[C@H](O)CC[C@]4(C)[C@H]3C[C@H](O)[C@]12C [CHOLIC ACID] | Not Active | Not Active | Not Active | Not Active | Not Active | Not Active | Not Active | Not Active | Not Active | – | – | –
Cc1cc(C2CCCCC2)n(O)c(=O)c1 [CICLOPIROX] | Not Active | Not Active | Not Active | Not Active | Not Active | Not Active | Not Active | Not Active | Not Active | – | – | –
CC1=C2C(=CO[C@H](C)[C@H]2C)C(O)=C(C(=O)O)C1=O [CITRININ] | Not Active | Not Active | Not Active | Not Active | Not Active | Not Active | Not Active | Not Active | Not Active | – | – | –
CC(C)(C)NCC(O)c1cc(Cl)c(N)c(Cl)c1 (centres undefined) [CLENBUTEROL] | Not Active | Not Active | Not Active | Not Active | Not Active | Not Active | Not Active | Not Active | Not Active | – | – | –
CC(C)(Oc1ccc(Cl)cc1)C(=O)O [CLOFIBRIC ACID] | Not Active | Not Active | Not Active | Not Active | Not Active | Not Active | Not Active | Not Active | Not Active | – | – | –
Clc1cccc(Cl)c1NC1=NCCN1 [CLONIDINE] | Not Active | Not Active | Not Active | Not Active | Not Active | Not Active | Not Active | Not Active | Not Active | – | – | –
Cc1cc(C(C#N)c2ccc(Cl)cc2)c(Cl)cc1NC(=O)c1cc(I)cc(I)c1O (centres undefined) [CLOSANTEL] | Not Active | Not Active | Not Active | Not Active | Not Active | Not Active | Not Active | Not Active | Not Active | – | – | –
Cc1onc(-c2ccccc2Cl)c1C(=O)N[C@@H]1C(=O)N2[C@@H]1SC(C)(C)[C@@H]2C(=O)O [CLOXACILLIN] | Not Active | Not Active | Not Active | Not Active | Not Active | Not Active | Not Active | Not Active | Not Active | – | – | –
CC1CC(OC(=O)C(O)c2ccccc2)CC(C)(C)C1 (centres undefined) [CYCLANDELATE] | Not Active | Not Active | Not Active | Not Active | Not Active | Not Active | Not Active | Not Active | Not Active | – | – | –
Cc1c2oc3c(C)ccc(C(=O)N[C@@H]4C(=O)N[C@H](C(C)C)C(=O)N5CCC[C@H]5C(=O)N(C)CC(=O)N(C)[C@@H](C(C)C)C(=O)O[C@@H]4C)c3nc-2c(C(=O)N[C@@H]2C(=O)N[C@H](C(C)C)C(=O)N3CCC[C@H]3C(=O)N(C)CC(=O)N(C)[C@@H](C(C)C)C(=O)O[C@@H]2C)c(N)c1=O [DACTINOMYCIN] (I: T[dV]P[Sar][NMeV] / II: T[dV]P[Sar][NMeV]; ester I:1-I:C, II:1-II:C; linker I:N-II:N via Actinocin(1to9)) | Not Active | Not Active | Not Active | Not Active | Not Active | Not Active | Not Active | Not Active | Not Active | – | – | –
Cc1c(O)c(=O)ccn1C [DEFERIPRONE] | Not Active | Not Active | Not Active | Not Active | Not Active | Not Active | Not Active | Not Active | Not Active | – | – | –
CNCCCN1c2ccccc2CCc2ccccc21 [DESIPRAMINE] | Not Active | Not Active | Not Active | Not Active | Not Active | Not Active | Not Active | Not Active | Not Active | – | – | –
O=c1oc2ccccc2c(O)c1Cc1c(O)c2ccccc2oc1=O [DICUMAROL] | Not Active | Not Active | Not Active | Not Active | – | Not Active | Not Active | Not Active | Not Active | 4.09 µM | – | –
C[C@H]1O[C@@H](O[C@H]2[C@@H](O)C[C@H](O[C@H]3[C@@H](O)C[C@H](O[C@H]4CC[C@@]5(C)[C@H](CC[C@@H]6[C@@H]5C[C@@H](O)[C@]5(C)[C@@H](C7=CC(=O)OC7)CC[C@]65O)C4)O[C@@H]3C)O[C@@H]2C)C[C@H](O)[C@@H]1O [DIGOXIN] | Not Active | Not Active | Not Active | Not Active | Not Active | Not Active | Not Active | Not Active | Not Active | – | – | –
CC(C)[C@@]1(NC(=O)[C@@H]2C[C@@H]3c4cccc5[nH]cc(c45)C[C@H]3N(C)C2)O[C@@]2(O)[C@@H]3CCCN3C(=O)[C@H](Cc3ccccc3)N2C1=O.CS(=O)(=O)O [DIHYDROERGOCRISTINE MESYLATE] | Not Active | Not Active | Not Active | Not Active | Not Active | Not Active | Not Active | Not Active | Not Active | – | – | –
